Assay results as given in patent US20080207522A1, “Antimicrobial Peptides” (priority 2004, published 2008).

What was measured:
[1] = tested on: Pseudomonas aeruginosa strain H1001; experiment: Assay for the cleaved (free, soluble) peptides from cellulose support, luminescence killing assay; type: cell-based; set-up: key: 1: Peptides showing stronger killing than Bac2A at a 4 to 8-fold higher dilution; Peptides showing stronger killing compared to that of Bac2A at a 4-fold higher dilution; 3: Peptides similar to Bac2A; 4: Peptides similar to Bac2A at the highest concentration but demonstrating weaker killing at a 2-fold dilution; 5: Peptides giving very weak or no killing at a 2-fold dilution; 6: Peptides with weak killing activity at the highest concentration; settings: free (cleaved) peptides, killing relative to Bac2A
Protocol: Assay for the cleaved peptides from cellulose support. The peptides were cleaved from the dried membrane in an ammonia atmosphere overnight, resulting in free peptides with an amidated C-terminus. The free peptides contained two β-alanines at the C-terminus, in addition to being amidated due to the linker between the cellulose membrane and the peptide sequence. The peptide spots were punched out and transferred in a 96-well microtiter plate. Serial dilutions were carried out from the membrane spots. Four rows were filled with four controls including two with Bac2A and two with of an unrelated peptide. The other eight rows were used for serial dilution steps of the peptide variants. An overnight culture of Pseudomonas aeruginosa strain H1001 was diluted 1:500 using either LB media or 100 mM Tris buffer pH 7.3, 20 mM glucose and was added to the wells (100 μl/well) containing the peptide spots. In all other wells 50 μl were added. The microtiter plate was incubated for 30 min at 37° C. to release the peptides from the membrane. Subsequently, a dilution series were performed and the plate was incubated at 37° C. The luminescence produced by the ATP dependent luciferase system were detected in a time dependent manner using a Tecan Spectra Fluor plus.
(§1) Strains. For the killing assay a mini-Tn5-lux mutant in Pseudomonas aeruginosa H103 was used. The strain is called H1001 and contains a fliC::luxCDABE transcriptional fusion resulting in constitutive expression of luciferase. The bacterial strains used for the antimicrobial activity assays included Escherichia coli UB1005 (F-, nalA37, metB1), a wild-type Salmonella enterica ssp. Typhimurium (S. Typhimurium), wild-type Pseudomonas aeruginosa PAO1 strain H103, Enterococcus faecalis ATCC29212, Staphylococcus aureus ATCC25923, and a clinical isolate of Staphylococcus epidermidis obtained from Dr. D. Speert (Department of Medicine, University of British Columbia). Antifungal activity was tested using a lab isolate of Candida albicans obtained from Dr. B. Dill (Department of Microbiology and Immunology, University of British Columbia).
Peptide synthesis on cellulose is a very effective and inexpensive way to investigate many different peptide variants for one particular activity. However, one of the problems of this technique is the low peptide density synthesized on the membrane, about 280 nmol per cm2. An average peptide spot used for the experiments presented is about 0.3 cm2. Therefore, an assay had to be developed that was sensitive enough to show activity with this amount of peptides. P. aeruginosa H1001 has a reporter system (e.g., a luciferase gene cassette) incorporated into the bacterial chromosome in the fliC gene (involved in flagellar biosynthesis) that is constitutively expressed. It will thus produce light if ATP is present. When this strain is killed, e.g. by peptides, the amount of light produced will decrease due to a decrease in ATP levels in the killed cells. This action can thus be monitored by detecting luminescence in a microtiter plate luminescence reader over time. The volume and amount of cells per well were optimized for this assay. After screening, the killing action was monitored with small amounts of the parent peptide Bac2A (2 μg/ml of free peptide).
Forty-nine scrambled peptides (Bac002-Bac050) were synthesized on the cellulose support and then cleaved by ammonia gas resulting in free peptides with an amidated C-terminus including the linker. The peptide spots were transferred to a 96-well microtiter plate and incubated for 30 min to dissociate the peptides from the cellulose. After serial dilution and addition of strain H1001, luminescence was recorded in a time dependent manner (FIG. 1). All 50 scrambled peptides were compared to Bac2A ([…]-NH2; SEQ ID NO: 1) by this assay (see Table 2). […] Further since all scrambled peptides had some activity, a sequence-specific interaction of the peptides with a receptor or target could be excluded.

[2] = tested on: Pseudomonas aeruginosa strain H1001 fliC::luxCDABE; experiment: Luminescence-based assay for the non-cleaved (bound) peptides on cellulose membranes; type: cell-based; settings: for Luminescence at the given time in minutes: 0 / Luminescence at the given time in minutes: 20 / Luminescence at the given time in minutes: 40 / Luminescence at the given time in minutes: 60 / Luminescence at the given time in minutes: 80 / Luminescence at the given time in minutes: 100 / Luminescence at the given time in minutes: 120 / Luminescence at the given time in minutes: 180 / Luminescence at the given time in minutes: 240: cellulose-bound peptide; for Luminescence at the given time in minutes: 0: 0 min; for Luminescence at the given time in minutes: 20: 20 min; for Luminescence at the given time in minutes: 40: 40 min; for Luminescence at the given time in minutes: 60: 60 min; for Luminescence at the given time in minutes: 80: 80 min; for Luminescence at the given time in minutes: 100: 100 min; for Luminescence at the given time in minutes: 120: 120 min; for Luminescence at the given time in minutes: 180: 180 min; for Luminescence at the given time in minutes: 240: 240 min; for Activity Class bound: uncleaved cellulose-bound peptides
Protocol: Luminescence-based MIC assay for the non-cleaved peptides on cellulose membranes. The peptide spots were punched out and transferred to a 96 well microtiter plate with a clear polystyrene bottom and opaque white polypropylene sides (PerkinElmer, Boston, USA). The spots were washed two times with 100% ethanol for 5 min and afterwards equilibrated five times with 100 mM Tris buffer pH 7.3 for 5 min. An overnight culture of Pseudomonas aeruginosa strain H1001 fliC::luxCDABE was diluted 1:50 in new MH medium and incubated at 37° C. to an OD600 of 0.35. This bacterial culture was diluted 1:25 into 10 mM Tris-HCl buffer, pH 7.3 containing 20 mM glucose. Fifty μl of this culture was added to all wells of the microtiter plate and incubated at 37° C. The luminescence of the strain produced by the ATP-dependent luciferase system was detected in a time dependent manner using a Tecan Spectra Fluor plus (Tecan, Austria). At the end of the experiment, the membranes were cleaned by washing the spots two times with 100% ethanol for five minutes. After removing the ethanol the membrane was air-dried.
as §1
The same set of peptides, as well as the reversed sequence of Bac2A-R ([…]; SEQ ID NO: 2166), were synthesized on cellulose and left uncleaved. The production of light was initially compared in wells containing spots of Bac2A, Bac2A-R (with the reversed sequence of Bac2A), the unrelated negative-control peptide, or, as additional controls, only cellulose, or only bacteria (FIG. 2).
As a control, the negative control (unrelated) peptide Bac429 and parent peptide Bac2A (=Bac001) were used in several different wells of the microtiter plate. Luminescence (relative light units; RLU) was measured at 14 different time points, 9 of which are shown. To permit comparison of the data with the free peptide data set, the result for each peptide was classified into six different groups, like the data set with the free peptides (Table 2). […] For the soluble peptides the following classes were established: […]

| Sequence | Activity Class Soluble [1] | Luminescence at the given time in minutes: 0 [2] [RLU] | Luminescence at the given time in minutes: 20 [2] [RLU] | Luminescence at the given time in minutes: 40 [2] [RLU] | Luminescence at the given time in minutes: 60 [2] [RLU] | Luminescence at the given time in minutes: 80 [2] [RLU] | Luminescence at the given time in minutes: 100 [2] [RLU] | Luminescence at the given time in minutes: 120 [2] [RLU] | Luminescence at the given time in minutes: 180 [2] [RLU] | Luminescence at the given time in minutes: 240 [2] [RLU] | Activity Class bound [2] |
| --- | --- | --- | --- | --- | --- | --- | --- | --- | --- | --- | --- |
| ARRLIVRVRVIA [Bac003] | 5 | 4138 | 5992 | 3320 | 906 | 192 | 74 | 83 | 76 | 36 | 3 (Peptides similar to Bac2A resulting in lux values of less than 500 after 240 min.) |
| AVRAIRVLRVIR [Bac015] | 3 | 4309 | 7112 | 5227 | 3783 | 2656 | 1785 | 1398 | 1244 | 1320 | 4 (Peptides reducing luminescence (lux) values to between 500 to 1499 after 240 min.) |
| AVRVRRRAILVI [Bac011] | 4 | 4516 | 7019 | 5176 | 3694 | 2076 | 1222 | 816 | 494 | 447 | 3 (Peptides similar to Bac2A resulting in lux values of less than 500 after 240 min.) |
| IAARRLIRVVRV [Bac012] | 3 | 4045 | 7171 | 5701 | 5037 | 4631 | 4418 | 4182 | 4344 | 5087 | 6 (Peptides having residual luminescence (lux) values greater than 3000 after 240 min.) |
| IARRIVAVRLRV [Bac026] | 3 | 4873 | 6389 | 4439 | 2341 | 1080 | 518 | 302 | 201 | 208 | 3 (Peptides similar to Bac2A resulting in lux values of less than 500 after 240 min.) |
| IIRAALRRVRVV [Bac009] | 5 | 3935 | 6553 | 4936 | 4512 | 3977 | 3488 | 3216 | 3270 | 3104 | 6 (Peptides having residual luminescence (lux) values greater than 3000 after 240 min.) |
